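Cells were grown in 96-well plates and exposed to each compound for 48 hours at five concentrations; endpoints were interpolated linearly between bracketing concentrations, or set to the highest concentration if not reached. Abbreviation: GI50, concentration required for 50% inhibition of growth.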 Active and inactive are the calls of the source. Rule as the data show it: active = GI50 up to about 1.1 µM and inactive = higher.
Key:
Assay in all cases: growth of human tumour cells (NCI), 48 h
[1] = test system: Hs-578T
[2] = test system: Malme-3M
[3] = test system: BT-549
[4] = test system: PC-3
[5] = test system: RXF 393
[6] = test system: U-251
[7] = test system: MCF7
[8] = test system: HL-60
[9] = test system: EKVX
[10] = test system: SF-295
[11] = test system: SNB-75
[12] = test system: A549
[13] = test system: RPMI-8226
[14] = test system: K562
[15] = test system: NCI-H226
[16] = test system: MDA-MB-231
[17] = test system: UACC-257
[18] = test system: OVCAR-3
[19] = test system: NCI-H522
[20] = test system: HT-29

O=c1cc(N2CCOCC2)oc2c(-c3ccccc3)cccc12 [LY-294002] was tested, and the GI50 [1] was 1.9 µM (inactive), the GI50 [2] was 0.286 µM (active) and the GI50 [3] was 5.7 µM (inactive). The GI50 [4] was 2.34 µM (inactive), the GI50 [5] was 2.77 µM (inactive) and the GI50 [6] was 19.5 µM (inactive). The GI50 [7] was 3.09 µM (inactive), the GI50 [8] was 14.7 µM (inactive) and the GI50 [9] was 3.49 µM (inactive). For the same molecule, the GI50 [10] was 6.53 µM (inactive), the GI50 [11] was 1.11 µM (active) and the GI50 [12] was 4.79 µM (inactive). The GI50 [13] was 2.96 µM (inactive), the GI50 [14] was 14.2 µM (inactive) and the GI50 [15] was 3.93 µM (inactive). For the same molecule, the GI50 [16] was 3.13 µM (inactive), the GI50 [17] was 14.5 µM (inactive) and the GI50 [18] was 7.16 µM (inactive). The GI50 [19] was 2.21 µM (inactive) and the GI50 [20] was 6.25 µM (inactive).

In the case of Cc1ccc(NC(=O)CC(=O)N2N=C(c3ccccc3)C(/N=N/c3ccc(S(=O)(=O)CCOS(=O)(=O)O)cc3)C2=O)cc1 (stereo not given), the GI50 [1] is reported as 29.2 µM (inactive), the GI50 [2] is reported as > 100 µM (inactive) and the GI50 [3] is reported as > 100 µM (inactive). The GI50 [4] was > 100 µM (inactive), the GI50 [5] was > 100 µM (inactive) and the GI50 [6] was 41.8 µM (inactive). For the same molecule, the GI50 [7] was 65.9 µM (inactive), the GI50 [8] was > 100 µM (inactive) and the GI50 [9] was > 100 µM (inactive). The GI50 [10] was > 100 µM (inactive), the GI50 [11] was > 100 µM (inactive) and the GI50 [12] was > 100 µM (inactive). For the same molecule, the GI50 [13] was > 100 µM (inactive), the GI50 [14] was > 100 µM (inactive) and the GI50 [15] was > 100 µM (inactive). For the same molecule, the GI50 [16] was > 100 µM (inactive), the GI50 [17] was > 100 µM (inactive) and the GI50 [18] was > 100 µM (inactive). The GI50 [19] was 58.6 µM (inactive) and the GI50 [20] was > 100 µM (inactive).

O=C1N/C(=N/N=C\C(O)C(O)C(O)C(O)CO)N/C1=C\c1ccc(Cl)cc1 (stereo not given) was tested, and the GI50 [1] was 2.48 µM (inactive), the GI50 [2] was 2.76 µM (inactive) and the GI50 [3] was 5.52 µM (inactive). The GI50 [4] was 5.52 µM (inactive), the GI50 [5] was 7.19 µM (inactive) and the GI50 [6] was 2.15 µM (inactive). For the same molecule, the GI50 [7] was 4.3 µM (inactive), the GI50 [8] was 25.3 µM (inactive) and the GI50 [9] was 12.1 µM (inactive). The GI50 [10] was 9.23 µM (inactive), the GI50 [11] was 2.3 µM (inactive) and the GI50 [12] was 27.2 µM (inactive). For the same molecule, the GI50 [13] was > 62.8 µM (inactive), the GI50 [14] was 10.6 µM (inactive) and the GI50 [15] was 3 µM (inactive). The GI50 [16] was 4.81 µM (inactive), the GI50 [17] was 14.5 µM (inactive) and the GI50 [18] was 2.18 µM (inactive). The GI50 [19] was 2.75 µM (inactive) and the GI50 [20] was 17.4 µM (inactive).

For S=c1sc2nc(Cl)nc(Cl)c2s1, the GI50 [1] was 24 µM (inactive), the GI50 [2] was 8.83 µM (inactive) and the GI50 [3] was 8.87 µM (inactive). For the same molecule, the GI50 [4] was 12.4 µM (inactive), the GI50 [5] was 12 µM (inactive) and the GI50 [6] was 7.8 µM (inactive). For the same molecule, the GI50 [7] was 8.49 µM (inactive), the GI50 [8] was 0.442 µM (active) and the GI50 [9] was 16.9 µM (inactive). For the same molecule, the GI50 [10] was 16.7 µM (inactive), the GI50 [11] was 17.3 µM (inactive) and the GI50 [12] was 19 µM (inactive). For the same molecule, the GI50 [13] was 1.68 µM (inactive), the GI50 [14] was 4.24 µM (inactive) and the GI50 [15] was 17.5 µM (inactive). The GI50 [16] was 9.02 µM (inactive), the GI50 [17] was 15.3 µM (inactive) and the GI50 [18] was 10.3 µM (inactive). For the same molecule, the GI50 [19] was 6.84 µM (inactive) and the GI50 [20] was 8.24 µM (inactive).

For Oc1ncc(Cl)c(O)n1, the GI50 [1] was > 100 µM (inactive), the GI50 [2] was > 100 µM (inactive) and the GI50 [3] was > 100 µM (inactive). The GI50 [4] was > 100 µM (inactive), the GI50 [5] was > 100 µM (inactive) and the GI50 [6] was > 100 µM (inactive). The GI50 [7] was > 100 µM (inactive), the GI50 [8] was > 100 µM (inactive) and the GI50 [9] was > 100 µM (inactive). For the same molecule, the GI50 [10] was > 100 µM (inactive), the GI50 [11] was > 100 µM (inactive) and the GI50 [12] was > 100 µM (inactive). For the same molecule, the GI50 [13] was > 100 µM (inactive), the GI50 [14] was > 100 µM (inactive) and the GI50 [15] was > 100 µM (inactive). For the same molecule, the GI50 [16] was > 100 µM (inactive), the GI50 [17] was > 100 µM (inactive) and the GI50 [18] was > 100 µM (inactive). For the same molecule, the GI50 [19] was > 100 µM (inactive) and the GI50 [20] was > 100 µM (inactive).

In the case of COC(=O)CNC(=O)CCC(C)[C@H]1CCC2C3C(C[C@H](OC(C)=O)[C@@]21C)[C@@]1(C)CCC2(C[C@H]1C[C@H]3OC(C)=O)OOC1(CCCCC1)OO2 (stereo not given in full), the GI50 [1] is reported as 2.72 µM (inactive), the GI50 [2] is reported as 3.37 µM (inactive) and the GI50 [3] is reported as 1.69 µM (inactive). For the same molecule, the GI50 [4] was 2.49 µM (inactive), the GI50 [5] was 1.99 µM (inactive) and the GI50 [6] was 1.76 µM (inactive). The GI50 [7] was 3.26 µM (inactive), the GI50 [8] was 2.36 µM (inactive) and the GI50 [9] was 2.18 µM (inactive). The GI50 [10] was 6.08 µM (inactive), the GI50 [11] was 2.23 µM (inactive) and the GI50 [12] was 1.72 µM (inactive). For the same molecule, the GI50 [13] was 1.75 µM (inactive), the GI50 [14] was 3.14 µM (inactive) and the GI50 [15] was 2.1 µM (inactive). The GI50 [16] was 1.64 µM (inactive), the GI50 [17] was 6.31 µM (inactive) and the GI50 [18] was 2.04 µM (inactive). For the same molecule, the GI50 [19] was 1.48 µM (inactive) and the GI50 [20] was 2.69 µM (inactive).

In the case of CCOC(=O)C1CCC(=O)N1C(=O)c1ccccc1Cl (stereo not given), the GI50 [1] is reported as > 100 µM (inactive), the GI50 [2] is reported as > 100 µM (inactive) and the GI50 [3] is reported as > 100 µM (inactive). For the same molecule, the GI50 [4] was > 100 µM (inactive), the GI50 [5] was > 100 µM (inactive) and the GI50 [6] was > 100 µM (inactive). The GI50 [7] was > 100 µM (inactive), the GI50 [8] was > 100 µM (inactive) and the GI50 [9] was > 100 µM (inactive). For the same molecule, the GI50 [10] was > 100 µM (inactive), the GI50 [11] was > 100 µM (inactive) and the GI50 [12] was > 100 µM (inactive). The GI50 [13] was > 100 µM (inactive), the GI50 [14] was > 100 µM (inactive) and the GI50 [15] was > 100 µM (inactive). For the same molecule, the GI50 [16] was > 100 µM (inactive), the GI50 [17] was > 100 µM (inactive) and the GI50 [18] was > 100 µM (inactive). For the same molecule, the GI50 [19] was > 100 µM (inactive) and the GI50 [20] was > 100 µM (inactive).

With CN(C)c1ccc(/C=C(/NC(=O)c2ccccc2)C(=O)Nc2ccccc2C(=O)O)cc1 the GI50 [1] was > 100 µM (inactive), the GI50 [2] was > 100 µM (inactive) and the GI50 [3] was > 100 µM (inactive). For the same molecule, the GI50 [4] was > 100 µM (inactive), the GI50 [5] was > 100 µM (inactive) and the GI50 [6] was > 100 µM (inactive). The GI50 [7] was > 100 µM (inactive), the GI50 [8] was > 100 µM (inactive) and the GI50 [9] was > 100 µM (inactive). The GI50 [10] was > 100 µM (inactive), the GI50 [11] was > 100 µM (inactive) and the GI50 [12] was > 100 µM (inactive). For the same molecule, the GI50 [13] was > 100 µM (inactive), the GI50 [14] was > 100 µM (inactive) and the GI50 [15] was > 100 µM (inactive). The GI50 [16] was > 100 µM (inactive), the GI50 [17] was > 100 µM (inactive) and the GI50 [18] was > 100 µM (inactive). For the same molecule, the GI50 [19] was > 100 µM (inactive) and the GI50 [20] was > 100 µM (inactive).

For C=C1C(=O)OC2/C=C(\CO)C3OC3C3OC3(C)CC(OC(=O)/C(=C/C)COC(C)=O)C12 (stereo not given), the GI50 [1] was 3.7 µM (inactive), the GI50 [2] was 1.67 µM (inactive) and the GI50 [3] was 1.77 µM (inactive). The GI50 [4] was 14 µM (inactive), the GI50 [5] was 1.71 µM (inactive) and the GI50 [6] was 5 µM (inactive). For the same molecule, the GI50 [7] was 3.94 µM (inactive), the GI50 [8] was 1.39 µM (inactive) and the GI50 [9] was 3.81 µM (inactive). For the same molecule, the GI50 [10] was 10 µM (inactive), the GI50 [11] was 9.68 µM (inactive) and the GI50 [12] was 18.6 µM (inactive). The GI50 [13] was > 100 µM (inactive), the GI50 [14] was 16 µM (inactive) and the GI50 [15] was 21.6 µM (inactive). The GI50 [16] was 6.04 µM (inactive), the GI50 [17] was 3.84 µM (inactive) and the GI50 [18] was 3.52 µM (inactive). For the same molecule, the GI50 [19] was 0.313 µM (active) and the GI50 [20] was 3.89 µM (inactive).

Source: ChEMBL document CHEMBL1201862, “PubChem BioAssay data set” (2004)
